Source: patent US20080227820A1, “CYCLIC PHENYL-SUBSTITUTED INDAZOLS, A PROCESS FOR THEIR PRODUCTION AND THEIR USE AS ANTI-INFLAMMATORY AGENTS” (priority 2006, published 2008)

How the values were obtained:
ER = assay: Steroid receptor binding, ER
androgen receptor (AR) = biological target: T1, androgen receptor (AR) (Homo sapiens, UniProt P10275); assay: Binding to recombinant androgen receptor; settings: recombinantly produced receptor
T1 sequence (P10275 1-920): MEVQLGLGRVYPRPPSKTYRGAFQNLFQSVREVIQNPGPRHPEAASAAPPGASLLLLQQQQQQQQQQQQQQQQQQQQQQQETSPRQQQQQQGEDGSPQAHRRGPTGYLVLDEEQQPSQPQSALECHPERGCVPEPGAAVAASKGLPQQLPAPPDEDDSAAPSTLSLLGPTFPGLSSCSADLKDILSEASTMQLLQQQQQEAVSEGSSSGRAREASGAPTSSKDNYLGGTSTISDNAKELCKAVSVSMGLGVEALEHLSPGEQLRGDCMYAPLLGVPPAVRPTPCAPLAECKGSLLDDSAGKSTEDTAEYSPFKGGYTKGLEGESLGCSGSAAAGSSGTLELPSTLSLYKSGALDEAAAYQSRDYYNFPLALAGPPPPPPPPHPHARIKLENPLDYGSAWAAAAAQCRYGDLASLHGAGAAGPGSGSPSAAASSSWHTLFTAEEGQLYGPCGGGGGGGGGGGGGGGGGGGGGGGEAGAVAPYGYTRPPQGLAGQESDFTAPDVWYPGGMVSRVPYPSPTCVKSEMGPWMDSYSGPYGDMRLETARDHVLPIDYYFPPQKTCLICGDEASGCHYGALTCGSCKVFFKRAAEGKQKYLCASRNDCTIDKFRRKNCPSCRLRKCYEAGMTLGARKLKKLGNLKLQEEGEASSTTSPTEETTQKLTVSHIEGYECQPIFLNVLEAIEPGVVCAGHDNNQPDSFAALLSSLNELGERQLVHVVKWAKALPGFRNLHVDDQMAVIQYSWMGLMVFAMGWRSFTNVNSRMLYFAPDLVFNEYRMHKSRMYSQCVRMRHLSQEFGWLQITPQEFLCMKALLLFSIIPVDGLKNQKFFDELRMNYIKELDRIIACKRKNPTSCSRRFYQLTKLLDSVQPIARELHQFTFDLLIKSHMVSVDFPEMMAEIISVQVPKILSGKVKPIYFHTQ
From the text: (§1) The binding of the substances to the glucocorticoid receptor (GR) and other steroid hormone receptors (mineral corticoid receptor (MR), progesterone receptor (PR) and androgen receptor (AR)) is examined with the aid of recombinantly produced receptors. Cytosol preparations of Sf9 cells, which had been infected with recombinant baculoviruses, which code for the GR, are used for the binding studies. In comparison to reference substance [^3H]-dexamethasone, the substances show a high to very high affinity to GR.

[1] = biological target: T2, mineral corticoid receptor (MR) (Homo sapiens, UniProt P08235); assay: Binding to recombinant mineral corticoid receptor; settings: recombinantly produced receptor
T2 sequence (P08235 1-984): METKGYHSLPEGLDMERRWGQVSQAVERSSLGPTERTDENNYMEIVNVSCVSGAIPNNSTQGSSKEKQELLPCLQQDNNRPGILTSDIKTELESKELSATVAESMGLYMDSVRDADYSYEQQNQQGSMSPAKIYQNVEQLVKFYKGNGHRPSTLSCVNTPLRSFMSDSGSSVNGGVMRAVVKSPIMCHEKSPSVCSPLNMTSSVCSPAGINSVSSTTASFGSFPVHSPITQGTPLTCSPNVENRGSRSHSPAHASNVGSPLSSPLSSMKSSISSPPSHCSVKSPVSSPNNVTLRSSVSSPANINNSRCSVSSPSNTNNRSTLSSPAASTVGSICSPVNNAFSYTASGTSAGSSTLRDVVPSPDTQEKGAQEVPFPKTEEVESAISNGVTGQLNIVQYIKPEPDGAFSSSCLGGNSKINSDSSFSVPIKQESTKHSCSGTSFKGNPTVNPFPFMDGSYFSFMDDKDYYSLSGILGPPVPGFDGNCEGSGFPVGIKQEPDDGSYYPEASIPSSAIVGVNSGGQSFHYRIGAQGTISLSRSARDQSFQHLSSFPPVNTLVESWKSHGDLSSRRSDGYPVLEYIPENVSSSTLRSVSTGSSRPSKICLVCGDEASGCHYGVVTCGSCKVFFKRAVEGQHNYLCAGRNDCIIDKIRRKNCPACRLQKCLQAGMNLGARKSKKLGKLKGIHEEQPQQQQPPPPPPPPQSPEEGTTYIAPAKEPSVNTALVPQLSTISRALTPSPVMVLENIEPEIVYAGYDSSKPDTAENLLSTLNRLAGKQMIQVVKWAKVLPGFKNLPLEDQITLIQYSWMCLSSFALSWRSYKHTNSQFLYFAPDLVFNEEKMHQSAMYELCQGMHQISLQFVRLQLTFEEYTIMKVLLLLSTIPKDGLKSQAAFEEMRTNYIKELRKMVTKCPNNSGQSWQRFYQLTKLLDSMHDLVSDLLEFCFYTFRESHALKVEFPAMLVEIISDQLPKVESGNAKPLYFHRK
From the text: as §1

[2] = biological target: T3, glucocorticoid receptor (GR) (Homo sapiens, UniProt P04150); assay: Binding to recombinant glucocorticoid receptor, Sf9 cytosol, vs [3H]-dexamethasone; settings: [3H]-dexamethasone reference
T3 construct: made in house; host or cells: Sf9 cells infected with recombinant baculovirus (cytosol preparation)
T3 sequence (P04150 1-777): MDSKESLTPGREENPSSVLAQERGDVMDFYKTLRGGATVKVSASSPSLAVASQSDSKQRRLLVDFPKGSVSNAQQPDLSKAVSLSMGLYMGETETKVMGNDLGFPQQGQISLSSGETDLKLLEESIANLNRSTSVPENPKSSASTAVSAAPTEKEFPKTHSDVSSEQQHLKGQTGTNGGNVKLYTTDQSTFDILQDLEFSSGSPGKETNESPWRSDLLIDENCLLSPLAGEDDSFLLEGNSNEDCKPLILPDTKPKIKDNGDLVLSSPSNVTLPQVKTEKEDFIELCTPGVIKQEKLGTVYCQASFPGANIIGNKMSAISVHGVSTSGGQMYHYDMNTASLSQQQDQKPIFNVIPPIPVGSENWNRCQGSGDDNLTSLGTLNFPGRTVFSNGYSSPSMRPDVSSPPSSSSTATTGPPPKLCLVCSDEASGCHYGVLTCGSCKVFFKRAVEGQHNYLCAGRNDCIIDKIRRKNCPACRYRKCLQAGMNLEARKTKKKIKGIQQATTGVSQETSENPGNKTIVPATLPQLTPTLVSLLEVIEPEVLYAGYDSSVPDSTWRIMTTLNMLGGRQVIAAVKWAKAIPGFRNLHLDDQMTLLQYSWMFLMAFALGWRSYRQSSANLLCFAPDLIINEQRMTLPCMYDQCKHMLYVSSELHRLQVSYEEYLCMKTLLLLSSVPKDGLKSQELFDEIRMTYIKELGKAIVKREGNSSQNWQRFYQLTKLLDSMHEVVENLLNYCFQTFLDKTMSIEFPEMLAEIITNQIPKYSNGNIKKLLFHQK
From the text: as §1

[3] = tested on: human monocyte cell line THP-1; assay: Inhibition of LPS-triggered IL-8 secretion in THP-1 cells (ELISA); type: cell-based
Description: The concentration of the cytokines was determined in the supernatant by means of commercially available ELISA kits.

[4] = biological target: T4, progesterone receptor (PR) (Homo sapiens, UniProt P06401); assay: Binding to recombinant progesterone receptor; settings: recombinantly produced receptor
T4 sequence (P06401 1-933): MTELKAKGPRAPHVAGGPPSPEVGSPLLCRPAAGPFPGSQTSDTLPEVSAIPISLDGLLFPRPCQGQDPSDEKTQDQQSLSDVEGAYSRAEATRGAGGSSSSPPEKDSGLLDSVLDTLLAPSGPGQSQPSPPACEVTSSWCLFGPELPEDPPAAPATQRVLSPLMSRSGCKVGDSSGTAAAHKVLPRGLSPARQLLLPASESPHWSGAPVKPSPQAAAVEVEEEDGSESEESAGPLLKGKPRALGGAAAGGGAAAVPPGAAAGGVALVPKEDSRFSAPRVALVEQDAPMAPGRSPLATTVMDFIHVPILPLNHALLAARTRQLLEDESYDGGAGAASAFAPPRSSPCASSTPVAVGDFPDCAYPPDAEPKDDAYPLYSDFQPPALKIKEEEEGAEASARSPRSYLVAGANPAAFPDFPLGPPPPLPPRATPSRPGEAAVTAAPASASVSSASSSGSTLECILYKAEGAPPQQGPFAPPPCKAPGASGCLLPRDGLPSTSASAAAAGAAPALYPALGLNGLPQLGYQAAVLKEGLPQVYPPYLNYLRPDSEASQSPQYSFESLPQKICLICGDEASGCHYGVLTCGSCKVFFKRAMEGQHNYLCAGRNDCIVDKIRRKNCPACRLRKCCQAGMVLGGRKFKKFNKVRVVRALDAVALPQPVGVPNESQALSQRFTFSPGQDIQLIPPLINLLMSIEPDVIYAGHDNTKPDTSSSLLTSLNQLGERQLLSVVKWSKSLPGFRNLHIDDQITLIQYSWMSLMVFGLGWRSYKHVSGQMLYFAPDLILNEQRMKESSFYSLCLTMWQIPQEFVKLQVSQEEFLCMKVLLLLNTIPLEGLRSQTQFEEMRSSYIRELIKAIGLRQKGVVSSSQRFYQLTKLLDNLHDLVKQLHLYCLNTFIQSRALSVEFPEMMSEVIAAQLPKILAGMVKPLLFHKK
From the text: as §1

IC50 (ER): > 1000 nM | IC50 (androgen receptor (AR)): > 1000 nM | IC50 [1]: > 1000 nM | IC50 [2]: 16.5 nM | IC50 ([3]; Homo sapiens, THP-1, supernatant ELISA, read-out: IC50(IL8)): 2.4 nM | IC50 [4]: > 1000 nM
SMILES: CC[C@@H]1C[C@](O)(C(F)(F)F)[C@@H](Nc2cccc3c2cnn3-c2ccc(F)cc2)c2ccc(F)c(O)c21 [Example 4]
eff. relative to dexamethasone (IL-8 inhibition) ([3]; THP-1, relative to dexamethasone): 91%
